Measurements: patent US7858635B2 (priority 2005, dated 2010)

Experiments:
[1] = target: T1, M1 muscarinic receptor (Homo sapiens, UniProt P11229); assay: Functional mobilization of intracellular calcium (FLIPR, Fluo-3), M1-CHO cells; type: cell-based; conditions: for Emax: compound nos. 455-509, 100% efficacy is the maximum response obtained with the Carbachol control, read-out: M1 Efficacy; for M1 Activity: compounds 455-509
T1 construct: expressed in transfected cells; host or cells: CHO cells (M1-CHO, under zeocin and G418 selection)
T1 sequence (P11229 1-460): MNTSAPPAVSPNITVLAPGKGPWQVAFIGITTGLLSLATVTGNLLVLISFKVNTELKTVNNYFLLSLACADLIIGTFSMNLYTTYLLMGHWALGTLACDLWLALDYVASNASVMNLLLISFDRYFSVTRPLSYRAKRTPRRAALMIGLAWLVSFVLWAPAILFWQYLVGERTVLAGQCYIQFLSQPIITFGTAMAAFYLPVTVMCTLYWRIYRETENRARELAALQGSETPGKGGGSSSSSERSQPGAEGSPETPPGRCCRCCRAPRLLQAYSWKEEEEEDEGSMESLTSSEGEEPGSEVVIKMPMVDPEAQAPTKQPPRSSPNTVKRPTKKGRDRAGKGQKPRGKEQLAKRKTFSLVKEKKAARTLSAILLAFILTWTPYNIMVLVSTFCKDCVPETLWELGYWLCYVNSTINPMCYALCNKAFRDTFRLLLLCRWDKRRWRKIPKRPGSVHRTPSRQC
Summary of the method: (§1)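 Fluo-3 read-out, ex 488/em 540 nm, 60 sec on FLIPR 3. For agonist mode, compound added directly; for inhibition, 15 min compound pre-incubation before carbachol at EC80 (added as a 3× solution), or co-application. Buffer pH 7.4 with 1 mM probenecid; DMSO 0.5%.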

[2] = target: T2, M4 muscarinic receptor (Homo sapiens, UniProt P08173); assay: Functional mobilization of intracellular calcium (FLIPR, Fluo-3), M4-CHO cells; type: cell-based; conditions: for Emax: compound nos. 455-509, 100% efficacy is the maximum response obtained with the Carbachol control, read-out: M4 Efficacy; for M4 Activity: compounds 455-509
T2 construct: expressed in transfected cells; host or cells: CHO cells (M4-CHO, under puromycin, zeocin and blasticidin selection)
T2 sequence (P08173 1-479): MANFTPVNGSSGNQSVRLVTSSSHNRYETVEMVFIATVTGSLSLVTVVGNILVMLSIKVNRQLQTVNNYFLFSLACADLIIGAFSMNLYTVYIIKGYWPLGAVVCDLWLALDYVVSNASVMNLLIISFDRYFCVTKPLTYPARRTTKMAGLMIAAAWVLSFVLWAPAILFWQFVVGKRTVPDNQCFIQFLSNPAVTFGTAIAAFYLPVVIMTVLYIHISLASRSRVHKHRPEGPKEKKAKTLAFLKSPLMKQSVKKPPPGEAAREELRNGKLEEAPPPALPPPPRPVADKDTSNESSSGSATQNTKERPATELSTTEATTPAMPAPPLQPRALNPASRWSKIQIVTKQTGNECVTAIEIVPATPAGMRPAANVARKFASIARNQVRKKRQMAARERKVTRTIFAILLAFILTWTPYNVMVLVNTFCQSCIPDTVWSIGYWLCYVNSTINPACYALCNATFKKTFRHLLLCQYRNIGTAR
Summary of the method: as §1

| Compound | Emax [1] | M1 Activity [1] | Emax [2] | M4 Activity [2] |
| --- | --- | --- | --- | --- |
| CC(=O)N1CCC2(CCN(C3CCN(c4cnccn4)CC3)CC2)c2ccccc21 [compound 463] | > 100% | +++ (activity was measured to be less than or equal to 2.0 μM) | 25 to 100% | ++ (activity was measured to be between 2.0 μM and 5.0 μM) |
| CN(C)C(=O)N1CC2(CCN(C3CCN(c4cnccn4)CC3)CC2)c2ccccc21 [compound 464] | > 100% | +++ (activity was measured to be less than or equal to 2.0 μM) | > 100% | ++ (activity was measured to be between 2.0 μM and 5.0 μM) |
| CN(C)C(=O)N1CC2(CCN(C3(C)CCN(c4cnccn4)CC3)CC2)c2ccccc21 [compound 465] | > 100% | ++ (activity was measured to be between 2.0 μM and 5.0 μM) | 25 to 100% | ++ (activity was measured to be between 2.0 μM and 5.0 μM) |
| CCc1cnc(N2CCC(N3CCC4(CC3)CN(C(=O)N(C)C)c3ccccc34)CC2)cn1 [compound 466] | > 100% | ++ (activity was measured to be between 2.0 μM and 5.0 μM) | 25 to 100% | ++ (activity was measured to be between 2.0 μM and 5.0 μM) |
| CN(C)C(=O)N1CC2(CCN(C3CCN(c4cnc(-c5ccncc5)cn4)CC3)CC2)c2ccccc21 [compound 467] | > 100% | +++ (activity was measured to be less than or equal to 2.0 μM) | 25 to 100% | + (activity was measured to be greater than or equal to 5.0 μM) |
| Cc1cnc(N2CCC(N3CCC4(CC3)CN(C(=O)N(C)C)c3ccccc34)CC2)cn1 [compound 468] | > 100% | + (activity was measured to be greater than or equal to 5.0 μM) | 25 to 100% | ++ (activity was measured to be between 2.0 μM and 5.0 μM) |
| CN(C)C(=O)N1CC2(CCN(C3CCN(c4cncc(Cl)n4)CC3)CC2)c2ccccc21 [compound 469] | > 100% | +++ (activity was measured to be less than or equal to 2.0 μM) | 25 to 100% | ++ (activity was measured to be between 2.0 μM and 5.0 μM) |
| CC(=O)N1CC2(CCN(C3CCN(c4cncc(C)n4)CC3)CC2)c2ccccc21 [compound 470] | > 100% | +++ (activity was measured to be less than or equal to 2.0 μM) | 25 to 100% | ++ (activity was measured to be between 2.0 μM and 5.0 μM) |
| CC(=O)N1CC2(CCN(C3CCN(c4cnc(C)c(C)n4)CC3)CC2)c2ccccc21 [compound 471] | > 100% | ++ (activity was measured to be between 2.0 μM and 5.0 μM) | 25 to 100% | ++ (activity was measured to be between 2.0 μM and 5.0 μM) |
| Cc1ncc(N2CCC(N3CCC4(CC3)CN(C(=O)N(C)C)c3ccc(F)cc34)CC2)nc1C [compound 472] | > 100% | +++ (activity was measured to be less than or equal to 2.0 μM) | 25 to 100% | ++ (activity was measured to be between 2.0 μM and 5.0 μM) |
| CCc1nsc(N2C3CCC2CC(N2CCC4(CCN(C(=O)N(C)C)c5ccccc54)CC2)C3)n1 (centres unmarked) [compound 473] | > 100% | +++ (activity was measured to be less than or equal to 2.0 μM) | 25 to 100% | ++ (activity was measured to be between 2.0 μM and 5.0 μM) |
| Cc1nsc(N2CCC(N3CCC4(CCN(C(=O)N(C)C)c5ccccc54)CC3)CC2)n1 [compound 474] | > 100% | +++ (activity was measured to be less than or equal to 2.0 μM) | 25 to 100% | ++ (activity was measured to be between 2.0 μM and 5.0 μM) |
| CC(=O)N1CC2(CCN(C3CCN(c4nc(C)cs4)CC3)CC2)c2ccccc21 [compound 475] | 25 to 100% | ++ (activity was measured to be between 2.0 μM and 5.0 μM) | 25 to 100% | ++ (activity was measured to be between 2.0 μM and 5.0 μM) |
| CCc1nsc(N2CCC(N3CCC4(CC3)CN(C(=O)N(C)C)c3ccccc34)CC2)n1 [compound 476] | > 100% | +++ (activity was measured to be less than or equal to 2.0 μM) | > 100% | +++ (activity was measured to be less than or equal to 2.0 μM) |
| Cc1nsc(N2CC3(CCN(C4CC5CCC(C4)N5c4nc(C)ns4)CC3)c3ccccc32)n1 (centres unmarked) [compound 477] | > 100% | +++ (activity was measured to be less than or equal to 2.0 μM) | 25 to 100% | ++ (activity was measured to be between 2.0 μM and 5.0 μM) |
| Cc1cncc(N2CCC(N3CCC4(CC3)CN(C(=O)N(C)C)c3ccccc34)CC2)n1 [compound 478] | > 100% | +++ (activity was measured to be less than or equal to 2.0 μM) | 25 to 100% | ++ (activity was measured to be between 2.0 μM and 5.0 μM) |
| CC(=O)N(C)[C@H]1CC2(CCN(C3CCN(c4nc(C)ns4)CC3)CC2)c2ccccc21 [compound 479] | > 100% | +++ (activity was measured to be less than or equal to 2.0 μM) | 25 to 100% | ++ (activity was measured to be between 2.0 μM and 5.0 μM) |
| CN(C)C(=O)N1CC2(CCN(C3CCN(c4nccnc4C#N)CC3)CC2)c2cc(F)ccc21 [compound 480] | 25 to 100% | ++ (activity was measured to be between 2.0 μM and 5.0 μM) | 25 to 100% | ++ (activity was measured to be between 2.0 μM and 5.0 μM) |
| CN(C)C(=O)N1CC2(CCN(C3CCN(c4cncc(-c5ccccc5O)n4)CC3)CC2)c2ccccc21 [compound 481] | < 25% | +++ (activity was measured to be less than or equal to 2.0 μM) | < 25% | ++ (activity was measured to be between 2.0 μM and 5.0 μM) |
| CC(=O)N1CC2(CCN(C3CCN(c4nc(C)ns4)CC3)CC2)c2ccccc21 [compound 482] | > 100% | +++ (activity was measured to be less than or equal to 2.0 μM) | 25 to 100% | ++ (activity was measured to be between 2.0 μM and 5.0 μM) |
| CC(=O)N1CCC2(CCN(C3CCN(c4nc(C)cs4)CC3)CC2)c2ccccc21 [compound 483] | 25 to 100% | ++ (activity was measured to be between 2.0 μM and 5.0 μM) | 25 to 100% | ++ (activity was measured to be between 2.0 μM and 5.0 μM) |
| CCc1nsc(N2CCC(N3CCC4(CC3)C[C@H](N(C)C(C)=O)c3ccccc34)CC2)n1 [compound 484] | > 100% | +++ (activity was measured to be less than or equal to 2.0 μM) | 25 to 100% | ++ (activity was measured to be between 2.0 μM and 5.0 μM) |
| CCc1cncc(N2CCC(N3CCC4(CC3)CN(C(C)=O)c3ccccc34)CC2)n1 [compound 485] | > 100% | +++ (activity was measured to be less than or equal to 2.0 μM) | 25 to 100% | ++ (activity was measured to be between 2.0 μM and 5.0 μM) |
| CN(C)C(=O)N1CCC2(CCN(C3CC4CCC(C3)N4c3cnccn3)CC2)c2ccccc21 (centres unmarked) [compound 486] | > 100% | +++ (activity was measured to be less than or equal to 2.0 μM) | 25 to 100% | ++ (activity was measured to be between 2.0 μM and 5.0 μM) |
| Cc1ncc(N2CCC(N3CCC4(CC3)CN(C(=O)N(C)C)c3ccccc34)CC2)nc1C [compound 487] | > 100% | +++ (activity was measured to be less than or equal to 2.0 μM) | 25 to 100% | ++ (activity was measured to be between 2.0 μM and 5.0 μM) |
| COc1ccc(N2CCC(N3CCC4(CC3)CN(C(=O)N(C)C)c3ccc(F)cc34)CC2)nn1 [compound 488] | > 100% | + (activity was measured to be greater than or equal to 5.0 μM) | 25 to 100% | ++ (activity was measured to be between 2.0 μM and 5.0 μM) |
